Reference: patent US12415785B2, “Compound modulators of sting” (CTXT PTY LTD, priority 2019, dated 2025)
pKd: −log10 of the molar value.

Assays:
Format in all cases: binding
human STING (HAQ) [1] = assay: Differential scanning fluorimetry (DSF), huSTING (HAQ); settings: 2 μM protein, compound 100 μM; Tm with ligand minus Tm of protein alone (1% DMSO)
Outline: (§1)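 Recombinant His-TEV-tagged human STING allelic variants expressed in E. coli and purified by IMAC. Thermal unfolding followed by dye fluorescence (excitation 490 nm, emission 570 nm) from 20° C. to 100° C. in 0.5° C. steps, in triplicate, with and without ligand; Tm taken from the transition inflection point.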

human STING (HAQ) [2] = biological target: T1, human STING (HAQ) (Homo sapiens, UniProt Q86WV6, G230A/H232R/R293Q); assay: Surface plasmon resonance (SPR), STING (HAQ); settings: biotinylated STING on streptavidin chip, 8° C.
T1 sequence (Q86WV6 whole entry G230A/H232R/R293Q, looked up, the tested form may be a part): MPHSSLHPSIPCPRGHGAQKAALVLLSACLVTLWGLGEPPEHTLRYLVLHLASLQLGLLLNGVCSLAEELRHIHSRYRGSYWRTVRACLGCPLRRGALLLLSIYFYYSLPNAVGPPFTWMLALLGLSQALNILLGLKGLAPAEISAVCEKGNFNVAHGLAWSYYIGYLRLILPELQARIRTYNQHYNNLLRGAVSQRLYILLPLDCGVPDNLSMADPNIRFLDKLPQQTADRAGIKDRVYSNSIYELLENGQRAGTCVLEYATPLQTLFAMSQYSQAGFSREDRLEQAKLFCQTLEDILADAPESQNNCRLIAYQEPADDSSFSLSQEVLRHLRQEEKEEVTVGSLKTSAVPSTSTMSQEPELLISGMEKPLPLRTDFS
Procedure: Biophysical experiments were performed with three different recombinant human STING protein variants designated according to allelic nomenclature of Yi et al., (2013). Codon optimized DNA sequences (for expression in Escherichia coli) encoding amino acid residues 149 to 345 (Swiss Prot Q86WV6) of human STING (WT), human STING (HAQ) and human STING (R232H) were synthesised by GenScript USA Inc (Piscataway, New Jersey, USA). These were ligated into a modified pET43a E. coli expression vector designed to encode N-terminal His tag followed by tobacco etch virus protease (TEV) cleavage site and a STING gene sequence. The resulting protein sequences for the three allelic variants are listed below:
Binding interactions of ligands with STING proteins were quantified using Surface Plasmon Resonance (SPR) with a minimally biotinylated STING protein immobilized on a streptavidin chip surface. […] Minimal biotinylation of purified huSTING proteins was performed using a previously described methodology (Chhabra 2012). Briefly, approximately 20 nmol of recombinant STING protein in 1×TBS buffer (25 mM Tris-HCl, pH 7.5, 150 mM NaCl, 5 mM DTT) was mixed with of EZ-Link™ Sulfo-NHS-LC-LC-Biotin (Thermofisher Scientific, cat #21338) at a molar ratio of 1 to 0.6 and incubated on ice for 2 hours. To remove any unreacted biotin reagent, protein/biotin mixture was passed through a Superdex 75 (10/300 GL) column equilibrated with 10 mM HEPES, pH7.4, 150 mM NaCl, 5 mM DTT, 5%[v/v] glycerol. A protein peak containing biotinylated huSTING protein was collected and stored in aliquots at −80° C.
Streptavidin was simultaneously immobilized in all four channels of a CM5 sensor chip docked in a Biacore instrument (either Biacore S200 or Biacore T200, GE Healthcare) as described previously (Zender 2013). […]
All binding experiments were performed at 8° C. in SPR binding buffer. To determine binding affinity, compound interaction with immobilized STING protein was analysed using dose-response experiments. […]

human STING (HAQ) [3] = biological target: T1, human STING (HAQ); assay: Differential scanning fluorimetry (DSF), huSTING (HAQ); settings: 2 μM protein, compound 100 μM; Tm with ligand minus Tm of protein alone (1% DMSO); read-out: DSF huSTING (HAQ) ΔTm (° C.)
Outline: as §1

Structure (SMILES) | DSF huSTING (HAQ) ΔTm (° C.) (human STING (HAQ) [1]) [°C] | pKd (human STING (HAQ) [2]) | ΔTm at 100 µM (human STING (HAQ) [3]) [°C]
NC(=O)c1ccc2c(c1)nc(-c1c(Br)cccc1C(=O)O)n2CCn1c(-c2c(Br)cccc2C(=O)O)nc2cc(C(N)=O)ccc21 (single isomer, unassigned) [Example 29.1, 2,2′-(Ethane-1,2-diylbis(5-carbamoyl-1H-benzo[d]imidazole-1,2-diyl))bis(3-bromobenzoic acid)] | 7.46 | – | –
NC(=O)c1ccc2c(c1)nc(-c1cc(Br)ccc1C(=O)O)n2CCn1c(-c2cc(Br)ccc2C(=O)O)nc2cc(C(N)=O)ccc21 [Example 3, 2,2′-(Ethane-1,2-diylbis(5-carbamoyl-1H-benzo[d]imidazole-1,2-diyl))bis(4-bromobenzoic acid)] | – | < 5.00 | 2.66
COc1c(C(N)=O)ccc2c1nc(-c1ccc(Cl)c(Cl)c1-c1nn[nH]n1)n2CCn1c(-c2ccc(Cl)c(Cl)c2-c2nn[nH]n2)nc2c(OC)c(C(N)=O)ccc21 [Example 37, 1,1′-(Ethane-1,2-diyl)bis(2-(3,4-dichloro-2-(2H-tetrazol-5-yl)phenyl)-4-methoxy-1H-benzo[d]imidazole-5-carboxamide)] | – | 6.70 | 2.8
COc1c(C(N)=O)ccc2c1nc(-c1ccc(C(F)(F)F)cc1C(=O)O)n2CCn1c(-c2ccc(C(F)(F)F)cc2C(=O)O)nc2c(OC)c(C(N)=O)ccc21 [Example 38, 6,6′-(Ethane-1,2-diylbis(5-carbamoyl-4-methoxy-1H-benzo[d]imidazole-1,2-diyl))bis(3-(trifluoromethyl)benzoic acid)] | – | < 4.00 | 3.68
COc1c(C(N)=O)ccc2c1nc(-c1c(F)cc(Cl)cc1-c1nn[nH]n1)n2CCn1c(-c2c(F)cc(Cl)cc2-c2nn[nH]n2)nc2c(OC)c(C(N)=O)ccc21 [Example 46, 1,1′-(Ethane-1,2-diyl)bis(2-(4-chloro-2-fluoro-6-(2H-tetrazol-5-yl)phenyl)-4-methoxy-1H-benzo[d]imidazole-5-carboxamide)] | – | – | 28.6
COc1c(C(N)=O)ccc2c1nc(-c1c(F)cccc1-c1nn[nH]n1)n2CCn1c(-c2c(F)cccc2-c2nn[nH]n2)nc2c(OC)c(C(N)=O)ccc21 [Example 48, 1,1′-(Ethane-1,2-diyl)bis(2-(2-fluoro-6-(2H-tetrazol-5-yl)phenyl)-4-methoxy-1H-benzo[d]imidazole-5-carboxamide)] | – | – | 25.5
COc1c(C(N)=O)ccc2c1nc(-c1c(F)cccc1-c1n[nH]c(=O)o1)n2CCn1c(-c2c(F)cccc2-c2n[nH]c(=O)o2)nc2c(OC)c(C(N)=O)ccc21 [Example 49, 1,1′-(Ethane-1,2-diyl)bis(2-(2-fluoro-6-(5-oxo-4,5-dihydro-1,3,4-oxadiazol-2-yl)phenyl)-4-methoxy-1H-benzo[d]imidazole-5-carboxamide)] | – | – | 21.3
COc1c(C(N)=O)ccc2c1nc(-c1c(F)cc(Cl)cc1-c1n[nH]c(=O)o1)n2CCn1c(-c2c(F)cc(Cl)cc2-c2n[nH]c(=O)o2)nc2c(OC)c(C(N)=O)ccc21 [Example 50, 1,1′-(Ethane-1,2-diyl)bis(2-(4-chloro-2-fluoro-6-(5-oxo-4,5-dihydro-1,3,4-oxadiazol-2-yl)phenyl)-4-methoxy-1H-benzo[d]imidazole-5-carboxamide)] | – | – | 26.4
